Consider 37 compounds from patent publication US20060074243A1, “Hydroxamic acid and amide compounds and their use as protease inhibitors” (Pharmacia Corporation, priority 2002, published 2006).

A word on the Ki: it is a dissociation constant, usually derived from enzyme kinetics or from competition with a known ligand.

Holding throughout (test): In vitro MMP inhibition analysis (fluorogenic peptide substrate cleavage), Ki
Holding throughout (assay type): biochemical
Holding throughout (conditions): Table 2

The target of one assay is T1, Human recombinant MMP-2 (Homo sapiens, UniProt P08253).
T1 construct: made in house; host or cells: MMP-2-transfected p2AHT2 cells
T1 sequence (P08253 110-660): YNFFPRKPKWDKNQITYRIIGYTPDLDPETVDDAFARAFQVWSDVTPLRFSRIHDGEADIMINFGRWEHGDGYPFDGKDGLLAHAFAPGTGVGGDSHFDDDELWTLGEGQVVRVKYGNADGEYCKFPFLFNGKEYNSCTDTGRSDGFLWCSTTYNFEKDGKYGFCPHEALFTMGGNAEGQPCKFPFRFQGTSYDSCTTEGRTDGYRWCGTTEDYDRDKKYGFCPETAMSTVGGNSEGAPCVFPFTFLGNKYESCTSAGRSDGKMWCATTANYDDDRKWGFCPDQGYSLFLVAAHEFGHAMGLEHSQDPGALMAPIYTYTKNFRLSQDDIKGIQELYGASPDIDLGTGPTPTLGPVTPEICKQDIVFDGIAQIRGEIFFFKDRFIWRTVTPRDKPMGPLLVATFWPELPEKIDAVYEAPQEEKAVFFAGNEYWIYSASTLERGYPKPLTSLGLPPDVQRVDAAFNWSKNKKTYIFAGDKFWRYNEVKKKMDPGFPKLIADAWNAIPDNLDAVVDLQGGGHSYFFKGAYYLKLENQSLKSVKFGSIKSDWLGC
The method in brief: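 Human recombinant MMP-2 from transfected p2AHT2 cells was activated with APMA or trypsin and incubated 1 h at room temperature with compounds and 4 μM MCA-RPLGL(Dpa)ARER-NH2. Buffer was pH 7.5 Tris/NaCl/CaCl2, and fluorescence was read at ex 330/em 420 nm. Ki was fitted by Morrison's equation without substrate correction.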

Another assay addresses T2, Human recombinant MMP-14 (Homo sapiens, UniProt P50281).
T2 construct: The catalytic domain enzyme was expressed in E. coli inclusion bodies, solubilized in urea; made in house
The method in brief:
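Refolded catalytic domain of MMP-14 expressed in E. coli, activated with APMA or trypsin, incubated 1 h at room temperature with 4 μM MCA-peptide substrate in Tris buffer pH 7.5 with CaCl2. Cleavage rate followed by fluorescence (ex 330/em 420 nm). Ki from Morrison-equation fit; substrate at or below Km, so no substrate correction.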

For the next assay, the target named is T3, Human recombinant MMP-9 (Homo sapiens, UniProt P14780).
T3 construct: made in house; host or cells: MMP-9-transfected HT1080 cells (spent media)
The method in brief: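 Recombinant MMP-9 purified from transfected HT1080 cell media, activated with APMA, trypsin or recombinant MMP-3, assayed in Tris buffer pH 7.5 with CaCl2 and 4 μM fluorogenic MCA/Dpa peptide, 1 h at room temperature (ex 330/em 420 nm). Ki from Morrison-equation regression of velocity; substrate at or below Km, uncorrected.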

T3 sequence (P14780 107-707 limits assumed): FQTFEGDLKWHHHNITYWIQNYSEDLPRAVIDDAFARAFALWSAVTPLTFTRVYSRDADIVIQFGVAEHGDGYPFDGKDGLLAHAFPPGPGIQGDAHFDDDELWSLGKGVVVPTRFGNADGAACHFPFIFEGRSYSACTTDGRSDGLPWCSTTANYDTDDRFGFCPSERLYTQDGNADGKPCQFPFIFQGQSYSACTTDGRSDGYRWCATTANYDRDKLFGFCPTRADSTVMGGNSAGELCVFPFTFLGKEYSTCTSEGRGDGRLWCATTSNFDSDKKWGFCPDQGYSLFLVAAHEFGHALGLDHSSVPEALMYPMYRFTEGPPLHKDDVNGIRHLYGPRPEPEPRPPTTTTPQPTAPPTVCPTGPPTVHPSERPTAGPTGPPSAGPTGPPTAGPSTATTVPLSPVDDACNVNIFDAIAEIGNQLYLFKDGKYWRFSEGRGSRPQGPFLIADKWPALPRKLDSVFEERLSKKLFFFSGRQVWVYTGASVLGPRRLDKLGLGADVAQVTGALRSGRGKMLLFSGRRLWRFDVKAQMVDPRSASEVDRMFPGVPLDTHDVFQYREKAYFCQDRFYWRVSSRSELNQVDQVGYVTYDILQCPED

In the case of `COCCOc1ccc(-c2ccc(S(=O)(=O)C3(C(=O)NO)CCOCC3)cc2)cc1` [Example 70], the Ki at Human recombinant MMP-2 is 0.177 nM; at Human recombinant MMP-14, 299 nM; on Human recombinant MMP-9, 1.11 nM.
For `CCCCOc1ccc(-c2ccc(S(=O)(=O)C3(C(=O)NO)CCOCC3)cc2)cc1` [Example 77], in that order: 0.18 nM, 174 nM and 0.398 nM.
On to `CCCCOc1ccc(-c2ccc(S(=O)(=O)C3(C(=O)NO)CCOCC3)cc2)cc1C(F)(F)F` [Example 78], for which the Ki was determined as 55.5 nM at Human recombinant MMP-2, 9570 nM at Human recombinant MMP-14 and 132 nM at Human recombinant MMP-9.
As for `CCc1ccc(-c2ccc(S(=O)(=O)C3(C(=O)NO)CCOCC3)cc2)cc1` [Example 79], the values for the inhibitory constant (Ki) at Human recombinant MMP-2, on Human recombinant MMP-14 and on Human recombinant MMP-9 were 0.184 nM, 27.4 nM and 0.635 nM, respectively.
Regarding `O=C(NO)C1(S(=O)(=O)c2ccc(-c3ccc(OC(F)(F)F)cc3)cc2)CCOCC1` [Example 80], the Ki is 0.098 nM at Human recombinant MMP-2, 89.1 nM on Human recombinant MMP-14 and 0.622 nM on Human recombinant MMP-9.
With `Cc1ccc(-c2ccc(S(=O)(=O)C3(C(=O)NO)CCOCC3)cc2)nc1` [Example 81], the values for the Ki at Human recombinant MMP-2, on Human recombinant MMP-14 and at Human recombinant MMP-9 were 0.106 nM, 22.6 nM and 0.993 nM, respectively.
For `O=C(NO)C1(S(=O)(=O)c2ccc(-c3ccc(C(F)(F)F)cn3)cc2)CCOCC1` [Example 82], in that order: 0.2 nM, 65.4 nM and 1.99 nM.
For the compound `CCCCNc1cnc(-c2ccc(S(=O)(=O)C3(C(=O)NO)CCOCC3)cc2)cn1` [Example 83], the Ki worked out at 7.44 nM at Human recombinant MMP-2, 6360 nM on Human recombinant MMP-14 and 2.75 nM at Human recombinant MMP-9.
With `O=C(NO)C1(S(=O)(=O)c2ccc(-c3ccc(F)c(C(F)(F)F)c3)cc2)CCOCC1` [Example 84], the Ki was found to be 10.1 nM at Human recombinant MMP-2, 989 nM at Human recombinant MMP-14 and 97.1 nM on Human recombinant MMP-9.
On to `O=C(NO)C1(S(=O)(=O)c2ccc(-c3ccc(OCC(F)(F)C(F)F)c(C(F)(F)F)c3)cc2)CCOCC1` [Example 85], for which the Ki on Human recombinant MMP-2 amounted to 33.4 nM; at Human recombinant MMP-14 it was 2800 nM; at Human recombinant MMP-9 it was 248 nM.
For `CC(C)CCOc1ccc(-c2ccc(S(=O)(=O)C3(C(=O)NO)CCOCC3)cc2)cc1C(F)(F)F` [Example 86], in that order: 85.7 nM, above 10000 nM and 414 nM.
Regarding `CCCc1ccc(-c2ccc(S(=O)(=O)C3(C(=O)NO)CCOCC3)cc2)cc1` [Example 87], the Ki came out at 0.158 nM on Human recombinant MMP-2, 62.3 nM on Human recombinant MMP-14 and 0.176 nM on Human recombinant MMP-9.
On to `O=C(NO)C1(S(=O)(=O)c2ccc(-c3cnc(OCCCC(F)(F)F)cn3)cc2)CCOCC1` [Example 88], for which the Ki was found to be 0.15 nM on Human recombinant MMP-2, 539 nM at Human recombinant MMP-14 and 2.31 nM at Human recombinant MMP-9.
In the case of `CCCCc1ccc(-c2ccc(S(=O)(=O)C3(C(=O)NO)CCOCC3)cc2)nc1` [Example 89], the Ki on Human recombinant MMP-2 was found to be 0.0488 nM; on Human recombinant MMP-14, 139 nM; on Human recombinant MMP-9, 0.0528 nM.
On the same counts, the results for `O=C(NO)C1(S(=O)(=O)c2ccc(-c3ccc(OCC(F)(F)C(F)(F)F)c(C(F)(F)F)c3)cc2)CCOCC1` [Example 90] are 28.3 nM, 2100 nM and 216 nM.
For `CCCCc1ccc(-c2ccc(S(=O)(=O)C3(C(=O)NO)CCOCC3)cc2)cc1` [Example 91], in that order: 0.374 nM, 321 nM and 0.266 nM.
On to `CCC(C)COc1ccc(-c2ccc(S(=O)(=O)C3(C(=O)NO)CCOCC3)cc2)cc1C(F)(F)F` (stereo not drawn) [Example 92], for which the inhibition constant Ki came out at 58.1 nM on Human recombinant MMP-2, 7410 nM on Human recombinant MMP-14 and 106 nM at Human recombinant MMP-9.
On the same counts, the results for `CCNc1cnc(-c2ccc(S(=O)(=O)C3(C(=O)NO)CCOCC3)cc2)cn1` [Example 93] are 4.16 nM, 4450 nM and 4.86 nM.
For the compound `O=C(NO)C1(S(=O)(=O)c2ccc(-c3cnc(-n4cccc4)cn3)cc2)CCOCC1` [Example 94], the results for the Ki on Human recombinant MMP-2, at Human recombinant MMP-14 and on Human recombinant MMP-9 were 1.09 nM, 2940 nM and 3.4 nM, respectively.
For `O=C(NO)C1(S(=O)(=O)c2ccc(-c3ccc(OCC(F)(F)C(F)(F)F)cc3)cc2)CCOCC1` [Example 95], the Ki came out at 0.17 nM on Human recombinant MMP-2, 463 nM at Human recombinant MMP-14 and 0.752 nM on Human recombinant MMP-9.
Consider `O=C(NO)C1(S(=O)(=O)c2ccc(-c3ccc(C(F)(F)F)cc3F)cc2)CCOCC1` [Example 96], for which the inhibition constant (Ki) at Human recombinant MMP-2 is 0.668 nM; at Human recombinant MMP-14 it was 224 nM; at Human recombinant MMP-9, 2.14 nM.
With `CC(C)c1ccc(-c2ccc(S(=O)(=O)C3(C(=O)NO)CCOCC3)cc2)cc1` [Example 97], the Ki was 1.14 nM at Human recombinant MMP-2, 109 nM on Human recombinant MMP-14 and 5.4 nM on Human recombinant MMP-9.
On to `COC/C(Cl)=C/c1cnc(-c2ccc(S(=O)(=O)C3(C(=O)NO)CCOCC3)cc2)cn1` [Example 165], for which the Ki at Human recombinant MMP-2 turned out to be 2.46 nM; on Human recombinant MMP-14, 1110 nM; on Human recombinant MMP-9 it was 267 nM.
On the same counts, the results for `CC(C)CC#Cc1cnc(-c2ccc(S(=O)(=O)C3(C(=O)NO)CCOCC3)cc2)cn1` [Example 166] are 0.4 nM, 264 nM and 0.1 nM.
Consider `O=C(NO)C1(S(=O)(=O)c2ccc(-c3ccc(CCC(F)(F)C(F)(F)F)cc3)cc2)CCS(=O)(=O)CC1` [Example 167], for which the inhibitory constant (Ki) on Human recombinant MMP-2 amounted to 1.9 nM; at Human recombinant MMP-14 it was 3590 nM; at Human recombinant MMP-9 it was 12.5 nM.
On to `O=C(NO)C1(S(=O)(=O)c2ccc(-c3cnc(OCC4CC4)cn3)cc2)CCOCC1` [Example 168], for which the Ki at Human recombinant MMP-2 came out at 0.08 nM; at Human recombinant MMP-14, 46.2 nM; at Human recombinant MMP-9 it was 0.19 nM.
In the case of `CC(C)CCc1cnc(-c2ccc(S(=O)(=O)C3(C(=O)NO)CCOCC3)cc2)cn1` [Example 169], the values for the Ki at Human recombinant MMP-2, on Human recombinant MMP-14 and on Human recombinant MMP-9 were 1.09 nM, 2520 nM and 0.59 nM, respectively.
On to `CC(C)COc1cnc(-c2ccc(S(=O)(=O)C3(C(=O)NO)CCOCC3)cc2)cn1` [Example 170], for which the figures for the inhibition constant (Ki) on Human recombinant MMP-2, at Human recombinant MMP-14 and at Human recombinant MMP-9 were 0.09 nM, 234 nM and 0.08 nM, respectively.
As to `O=C(N1CCOCC1)N1CCC(C(=O)NO)(S(=O)(=O)c2ccc(-c3ccc(CCC(F)(F)C(F)(F)F)cc3)cc2)CC1` [Example 171], the values for the Ki at Human recombinant MMP-2, at Human recombinant MMP-14 and on Human recombinant MMP-9 were 0.24 nM, 633 nM and 0.62 nM, respectively.
For `O=C(NO)C1(S(=O)(=O)c2ccc(-c3cnc(OCCC4CC4)cn3)cc2)CCOCC1` [Example 172], in that order: 0.07 nM, 222 nM and 0.06 nM.
On the same counts, the results for `CN(C)C(=O)N1CCC(C(=O)NO)(S(=O)(=O)c2ccc(-c3ccc(CCC(F)(F)C(F)(F)F)cc3)cc2)CC1` [Example 173] are 0.35 nM, 441 nM and 0.67 nM.
Take `CC(C)N(C(=O)N1CCC(C(=O)NO)(S(=O)(=O)c2ccc(-c3ccc(CCC(F)(F)C(F)(F)F)cc3)cc2)CC1)C(C)C` [Example 174]: the Ki came out at 1.24 nM on Human recombinant MMP-2, 1180 nM at Human recombinant MMP-14 and 3.77 nM at Human recombinant MMP-9.
On to `O=C(N1CCCCC1)N1CCC(C(=O)NO)(S(=O)(=O)c2ccc(-c3ccc(CCC(F)(F)C(F)(F)F)cc3)cc2)CC1` [Example 175], for which the values for the inhibition constant Ki at Human recombinant MMP-2, at Human recombinant MMP-14 and at Human recombinant MMP-9 were 0.42 nM, above 10000 nM and 1.35 nM, respectively.
With `O=C(NO)C1(S(=O)(=O)c2ccc(-c3ccc(CCC(F)(F)F)cn3)cc2)CCOCC1` [Example 176], the inhibition constant (Ki) at Human recombinant MMP-2 came out at 0.04 nM; on Human recombinant MMP-14, 111 nM; at Human recombinant MMP-9 it was 0.04 nM.
In the case of `COCCC(C(=O)NO)S(=O)(=O)c1ccc(-c2ccc(CCC(F)(F)C(F)(F)F)cc2)cc1` (stereo not drawn) [Example 177], the figures for the Ki at Human recombinant MMP-2, on Human recombinant MMP-14 and on Human recombinant MMP-9 were 1.57 nM, 5860 nM and 5.36 nM, respectively.
Consider `O=C(NO)C1(S(=O)(=O)c2ccc(-c3cnc(OCC4CCC4)cn3)cc2)CCOCC1` [Example 178], for which the figures for the inhibitory constant (Ki) on Human recombinant MMP-2, at Human recombinant MMP-14 and on Human recombinant MMP-9 were 0.1 nM, 326 nM and 0.14 nM, respectively.
For `COc1ccc(C(=O)c2cnc(-c3ccc(S(=O)(=O)C4(C(=O)NO)CCOCC4)cc3)cn2)cc1` [Example 179], the values for the Ki on Human recombinant MMP-2, at Human recombinant MMP-14 and at Human recombinant MMP-9 were 2.99 nM, 218 nM and 38.6 nM, respectively.
